Assay results reported in patent US20240217978A1 (CHONG KUN DANG PHARMACEUTICAL CORP., priority 2021, published 2024).

target: human adenosine A2a receptor (Homo sapiens (Human), UniProt P29274); assay: A2a receptor binding affinity, [3H]-NECA radioligand binding test; settings: [3H]-NECA 37 nM; membrane from HEK-293 cells transfected with human adenosine A2a receptor
In short: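 IC50 values (μM) come from displacement of [3H]-NECA, used at 37 nM final, on human A2a receptor membranes from transfected HEK-293 cells. Incubation lasted one hour at room temperature in Tris/MgCl2/EDTA buffer, pH 7.4; filter-bound radioactivity was counted by scintillation.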

Chain of human adenosine A2a receptor (P29274 whole entry): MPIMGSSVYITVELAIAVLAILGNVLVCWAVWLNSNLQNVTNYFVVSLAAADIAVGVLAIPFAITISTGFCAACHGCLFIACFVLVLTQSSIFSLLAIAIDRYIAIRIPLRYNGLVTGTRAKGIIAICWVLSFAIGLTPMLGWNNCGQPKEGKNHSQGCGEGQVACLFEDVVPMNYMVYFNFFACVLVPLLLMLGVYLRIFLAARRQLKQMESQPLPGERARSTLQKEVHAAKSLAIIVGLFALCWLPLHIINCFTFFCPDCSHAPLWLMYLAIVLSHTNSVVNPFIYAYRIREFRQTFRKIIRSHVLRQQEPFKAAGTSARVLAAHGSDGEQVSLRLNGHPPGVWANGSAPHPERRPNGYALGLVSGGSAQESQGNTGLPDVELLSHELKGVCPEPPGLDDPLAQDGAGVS

SMILES	IC50
Nc1nc(N[C@@H](Cc2ccccc2)C(=O)N2CCN(Cc3ccc(F)cc3F)CC2)nc2nc(-c3ccco3)nn12 [Example 13, (S)-2-((7-amino-2-(furan-2-yl)-[1,2,4]triazolo[1,5-a][1,3,5]triazin-5-yl)amino)-1-(4-(2,4-difluorobenzyl)piperazin-1-yl)-3-phenylpropan-1-one]	0.1 nM
CCC(C)[C@H](Nc1nc(N)n2nc(-c3ccco3)nc2n1)C(=O)N1CCN(c2ccc(F)cc2F)CC1 (stereo partly drawn) [Example 166, (2S)-2-((7-amino-2-(furan-2-yl)-[1,2,4]triazolo[1,5-a][1,3,5]triazin-5-yl)amino)-1-(4-(2,4-difluorophenyl)piperazin-1-yl)-3-methylpentan-1-one]	0.08 nM
COCCN1CCC(C2CCN(C(=O)[C@@H]3CCCN3c3nc(N)n4nc(-c5ccco5)nc4n3)CC2)CC1 [Example 266, (S)-(1-(7-amino-2-(furan-2-yl)-[1,2,4]triazolo[1,5-a][1,3,5]triazin-5-yl)pyrrolidin-2-yl)(1′-(2-methoxyethyl)-[4,4′-bipiperidin]-1-yl) methanone]	15 nM
CC(C)C[C@H](Nc1nc(N)n2nc(-c3ccco3)nc2n1)C(=O)N1CCN(CC(F)(F)F)CC1 [Example 215, (S)-2-((7-amino-2-(furan-2-yl)-[1,2,4]triazolo[1,5-a][1,3,5]triazin-5-yl)amino)-4-methyl-1-(4-(2,2,2-trifluoroethyl)piperazin-1-yl)pentan-1-one]	8 nM
CC(C)(F)CN1CCN(C(=O)CNc2nc(N)n3nc(-c4ccco4)nc3n2)CC1 [Example 388, 2-((7-amino-2-(furan-2-yl)-[1,2,4]triazolo[1,5-a][1,3,5]triazin-5-yl)amino)-1-(4-(2-fluoro-2-methylpropyl)piperazin-1-yl)ethan-1-one]	9 nM
COCCN1CCN(C(=O)[C@H]2CCCN2c2nc(N)n3nc(-c4ccco4)nc3n2)CC1 [Example 92, (R)-(1-(7-amino-2-(furan-2-yl)-[1,2,4]triazolo[1,5-a][1,3,5]triazin-5-yl)pyrrolidin-2-yl)(4-(2-methoxyethyl)piperazin-1-yl)methanone]	2290 nM
Nc1nc(N2CCC[C@H]2C(=O)N2CCN(C(=O)C3(C(F)(F)F)CCCC3)CC2)nc2nc(-c3ccco3)nn12 [Example 76]	2 nM
CCCCN1CCN(C(=O)[C@H](COC)Nc2nc(N)n3nc(-c4ccco4)nc3n2)CC1 [Example 401, (S)-2-((7-amino-2-(furan-2-yl)-[1,2,4]triazolo[1,5-a][1,3,5]triazin-5-yl)amino)-1-(4-butylpiperazin-1-yl)-3-methoxypropan-1-one]	11 nM
C[C@H](Nc1nc(N)n2nc(-c3ccco3)nc2n1)C(=O)N1CCN(c2ncccn2)CC1 [Example 240, (S)-2-((7-amino-2-(furan-2-yl)-[1,2,4]triazolo[1,5-a][1,3,5]triazin-5-yl)amino)-1-(4-(pyrimidin-2-yl)piperazin-1-yl)propan-1-one]	0.3 nM
Nc1nc(N2CCC[C@H]2C(=O)N2CCC3(CC2)CN(Cc2ccc(F)cc2F)C3)nc2nc(-c3ccco3)nn12 [Example 52, (S)-(1-(7-amino-2-(furan-2-yl)-[1,2,4]triazolo[1,5-a][1,3,5]triazin-5-yl)pyrrolidin-2-yl)(2-(2,4-difluorobenzyl)-2,7-diazaspiro[3.5]nonan-7-yl)methanone]	16 nM
Nc1nc(N2CC[C@H]2C(=O)N2CCC(C3CCN(CC(F)(F)C(F)F)CC3)CC2)nc2nc(-c3ccco3)nn12 [Example 325, (S)-(1-(7-amino-2-(furan-2-yl)-[1,2,4]triazolo[1,5-a][1,3,5]triazin-5-yl)azetidin-2-yl)(1′-(2,2,3,3-tetrafluoropropyl)-[4,4′-bipiperidin]-1-yl)methanone]	8 nM
CC(C)[C@H](Nc1nc(N)n2nc(-c3ccco3)nc2n1)C(=O)N1CCN(CC(C)(C)O)CC1 [Example 351, (S)-2-((7-amino-2-(furan-2-yl)-[1,2,4]triazolo[1,5-a][1,3,5]triazin-5-yl)amino)-1-(4-(2-hydroxy-2-methylpropyl)piperazin-1-yl)-3-methylbutan-1-one]	17 nM
C[C@H](Nc1nc(N)n2nc(-c3ccco3)nc2n1)C(=O)N1CCN(Cc2ccccc2)CC1 [Example 21, (S)-2-((7-amino-2-(furan-2-yl)-[1,2,4]triazolo[1,5-a][1,3,5]triazin-5-yl)amino)-1-(4-benzylpiperazin-1-yl)propan-1-one]	30 nM
CC(F)(F)CN1CCC(C2CCN(C(=O)[C@@H]3CCCN3c3nc(N)n4nc(-c5ccco5)nc4n3)CC2)CC1 [Example 288, (S)-(1-(7-amino-2-(furan-2-yl)-[1,2,4]triazolo[1,5-a][1,3,5]triazin-5-yl)pyrrolidin-2-yl)(1′-(2,2-difluoropropyl)-[4,4′-bipiperidin]-1-yl)methanone]	3 nM
CC(C)OCCN1CCN(C(=O)[C@@H]2CCCN2c2nc(N)n3nc(-c4ccco4)nc3n2)CC1 [Example 140, (S)-(1-(7-amino-2-(furan-2-yl)-[1,2,4]triazolo[1,5-a][1,3,5]triazin-5-yl)pyrrolidin-2-yl)(4-(2-isopropoxyethyl)piperazin-1-yl)methanone]	10 nM
Nc1nc(N2CCC[C@H]2C(=O)N2CCN(CC(F)(F)C(F)(F)F)CC2)nc2sc(-c3ccco3)nc12 [Example 261, (S)-(1-(7-amino-2-(furan-2-yl)thiazolo[5,4-d]pyrimidin-5-yl)pyrrolidin-2-yl)(4-(2,2,3,3,3-pentafluoropropyl)piperazin-1-yl)methanone]	0.9 nM
CCCCN1CCN(C(=O)[C@@H](Nc2nc(N)n3nc(-c4ccco4)nc3n2)C2CCCC2)CC1 [Example 178, (S)-2-((7-amino-2-(furan-2-yl)-[1,2,4]triazolo[1,5-a][1,3,5]triazin-5-yl)amino)-1-(4-butylpiperazin-1-yl)-2-cyclopentylethan-1-one]	10 nM
CCCCN1CCC(C2CCN(C(=O)[C@@H]3CCN3c3nc(N)n4nc(-c5ccco5)nc4n3)CC2)CC1 [Example 328, (S)-(1-(7-amino-2-(furan-2-yl)-[1,2,4]triazolo[1,5-a][1,3,5]triazin-5-yl)azetidin-2-yl)(1′-butyl-[4,4′-bipiperidin]-1-yl)methanone]	25 nM
Nc1nc(N2CCC[C@H]2C(=O)N2CCN(CCC(F)(F)F)CC2)nc2nc(-c3ccco3)nn12 [Example 281, (S)-(1-(7-amino-2-(furan-2-yl)-[1,2,4]triazolo[1,5-a][1,3,5]triazin-5-yl)pyrrolidin-2-yl)(4-(3,3,3-trifluoropropyl)piperazin-1-yl) methanone]	9 nM
C[C@H](Nc1nc(N)n2nc(-c3ccco3)nc2n1)C(=O)N1CCC(C2CCN(CC(F)F)CC2)CC1 [Example 334, (S)-2-((7-amino-2-(furan-2-yl)-[1,2,4]triazolo[1,5-a][1,3,5]triazin-5-yl)amino)-1-(1′-(2,2-difluoroethyl)-[4,4′-bipiperidin]-1-yl)propan-1-one]	13 nM
Nc1nc(N2CCC[C@H]2C(=O)N2CCn3nc(C(F)(F)F)nc3C2)nc2nc(-c3ccco3)nn12 [Example 309]	21 nM
CC(F)(F)CN1CCC(C2CCN(C(=O)[C@@H]3CCCN3c3cc4nc(-c5ccco5)nn4c(N)n3)CC2)CC1 [Example 394, (S)-(1-(5-amino-2-(furan-2-yl)-[1,2,4]triazolo[1,5-c]pyrimidin-7-yl)pyrrolidin-2-yl)(1′-(2,2-difluoropropyl)-[4,4′-bipiperidin]-1-yl)methanone]	15 nM
